The text below walks through data of publication PMC7583350 (Journal of medicinal chemistry, 2018).

The target in one test is BIR2 domain of XIAP (Homo sapiens, UniProt P98170). Description: DELFIA assay, BIR2 domain of XIAP. It counts as binding. To be noted: supplementary Table S1.
For test [1], the system named is MOLT-4 cells. Description: Cell viability of MOLT-4 cells. It counts as cell-based, human. To be noted: MOLT-4, 48 hrs.
For a further test, the system named is H929 cells. As to the kind of experiment: MTS assay, multiple myeloma cell line H929. It counts as cell-based, human. Conditions: LCL161-sensitive MM cell line, 48 hr, 20 μM.
For a further test, the system named is L363 cells. Description: MTS assay, multiple myeloma cell line L363. It counts as cell-based, human. To be noted: LCL161-sensitive MM cell line, 48 hr, 20 μM. For orientation: Formazan colour is commonly taken as a measure of viable cells.
Another test has as its system BxPC3 cells. Description: Co-treatment with gemcitabine, BxPC3 pancreatic cancer cells. To be noted: 15 μM IAP inhibitor, 24 hrs co-treatment. It counts as cell-based, human.
A further test concerns PANC-1 cells. Description: Co-treatment with gemcitabine, PANC-1 pancreatic cancer cells. Conditions: GEM-resistant, 15 μM IAP inhibitor, 24 hrs co-treatment. It counts as cell-based, human.
Test [2] deals with MOLT-4 cells. To be noted: cited from earlier work.
For a further test, the system named is MIA PaCa-2 cells. As to the kind of experiment: Co-treatment with gemcitabine, MIA PaCa-2 pancreatic cancer cells. It counts as cell-based, human. Conditions: GEM-sensitive, 15 μM IAP inhibitor, 24 hrs co-treatment.

“Also recorded” adds a separate entry of the source.

Sequence of BIR2 domain of XIAP (P98170 152-236 limits assumed): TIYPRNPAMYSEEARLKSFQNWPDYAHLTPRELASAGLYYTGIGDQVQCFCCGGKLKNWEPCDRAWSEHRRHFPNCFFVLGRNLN

Turning to `CN[C@@H](C)C(=O)N[C@H](C(=O)N1CCC[C@H]1c1nc(C(=O)c2ccc(F)cc2)cs1)C1CCCCC1` [LCL161], the “Affinity for the BIR2 domain of XIAP” value at BIR2 domain of XIAP is given as “only modest affinity”. Further, in the test on MOLT-4 cells [1], the “Activity in cell viability assay” value is “not particularly active; also recorded: less potent than both compound 34 and compound 31”. In addition, in the test with H929 cells, the “Growth inhibition H929” value is “particularly active”. In addition, the “Growth inhibition L363” value in the test on L363 cells is “particularly active”. Also, in the test with BxPC3 cells, the “Effect in combination with gemcitabine, BxPC3” value was “significantly restore growth inhibition by gemcitabine”. In the test with PANC-1 cells, the “Effect in combination with gemcitabine, PANC-1” value was “significantly restore growth inhibition by gemcitabine”. For the same compound, the “Sensitivity of MOLT-4 cell line” value in the test on MOLT-4 cells [2] is listed as “insensitive”.

`CN[C@@H](C)C(=O)N[C@@H](Cc1cc(C)c(C(F)(F)F)cc1F)C(=O)N1CCC[C@H]1C(=O)N[C@@H]1CCc2c(F)cccc21` [Compound 31]: the “Effect in combination with gemcitabine, MIA PaCa-2” value in the test on MIA PaCa-2 cells is “modest significant additive effect”. The “Effect in combination with gemcitabine, BxPC3” value with BxPC3 cells was “significantly restore growth inhibition by gemcitabine; also recorded: significant synergism”. For the same compound, the “Effect in combination with gemcitabine, PANC-1” value with PANC-1 cells is given as “significantly restore growth inhibition by gemcitabine; also recorded: significant synergism”.
